Values quoted from earlier work, collected in patent US7714131B2, “Process for the stereoselective preparation of (−)-halofenate and derivatives thereof” (Metabolex, Inc., priority 2005, dated 2010).

Molecular target: cytochrome P450 2C9 (Homo sapiens, UniProt P11712)
Conditions: compared to the (+)-enantiomer of halofenic acid

cytochrome P450 2C9, sequence (P11712 whole entry): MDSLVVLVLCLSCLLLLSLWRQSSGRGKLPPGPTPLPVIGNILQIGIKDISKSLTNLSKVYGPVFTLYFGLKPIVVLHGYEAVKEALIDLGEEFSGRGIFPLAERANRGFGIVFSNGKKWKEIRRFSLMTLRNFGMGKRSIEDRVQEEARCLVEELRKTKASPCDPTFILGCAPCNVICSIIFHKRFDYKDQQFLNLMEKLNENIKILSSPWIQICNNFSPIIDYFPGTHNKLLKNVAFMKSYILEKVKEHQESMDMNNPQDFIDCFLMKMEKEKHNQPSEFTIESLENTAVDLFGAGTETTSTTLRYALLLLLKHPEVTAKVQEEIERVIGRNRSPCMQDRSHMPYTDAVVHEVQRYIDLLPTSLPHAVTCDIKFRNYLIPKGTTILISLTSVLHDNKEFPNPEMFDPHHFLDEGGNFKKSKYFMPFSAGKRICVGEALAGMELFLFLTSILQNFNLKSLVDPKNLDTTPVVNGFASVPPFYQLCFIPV

O=C(O)C(Oc1cccc(C(F)(F)F)c1)c1ccc(Cl)cc1 (single isomer, unassigned; (-)) [(−)-enantiomer of halofenic acid, (4-chlorophenyl)(3-trifluoromethylphenoxy)acetic acid]
ability to inhibit cytochrome P450 2C9, relative activity: about twenty-fold less active
